# Experiments:
# [1] = Solubility to tap water and behavior after dissolution of lyophilized samples; format: physicochemical; conditions: lyophilization 15 hours
# Experimental: On the other hand, such a phenomenon was not seen when ethanol was added (Table 1). Therefore, in the conditions like the ethanol addition groups, the sample was prepared by using t-butyl alcohol in substitution for ethanol, and lyophilized for 15 hours. As a result, solidification (powderization) by lyophilization was possible in both samples. In addition, the solubility to tap water was good, and after dissolution, gelation or the like has not also happened (Table 2). Furthermore, ethanol or t-butyl alcohol was not added, and in the system which only HD was added, the solubility to tap water was good, and after dissolution, gelation or the like had not also happened (Table 2). In the system which as substitution for HD, a nonionic surfactant, polyoxyethylene sorbitan monolaurate (hereinafter referred to as PO) was added, this system was also examined, and then a similar good result was obtained.
# [2] = Solubility to tap water of the substance obtained by azeotrope at 70° C.; format: physicochemical; conditions: surfactant HD, tap water of 5 mL
# Experimental: In the undiluted solution of octadecyl dimethyl (3-trimethoxysilyl propyl) ammonium chloride (hereinafter referred to as QAS) which is an antimicrobial detergent, hexadecyl trimethyl ammonium (hereinafter referred to as HD), which was a cationic surfactant, was added, and for the azeotrope, a sample solution with the addition of acetone or ethanol was prepared, azeotrope was performed at 70° C. […] In the resultant gelated substance, tap water of 5 mL was added, but gelation advanced in many samples highly and solidification was occurred within several minutes to 1 hour, and those were not suitable for practical use (Table 1).
# [3] = surfactant HD, solvent t-Butyl alcohol
# [4] = surfactant HD, solvent: nothing
# [5] = surfactant PO, solvent: nothing
structure (smiles),measurement,setting,value
"CCCCCCCCCCCCCCCCCC[N+](C)(C)CCC[Si](OC)(OC)OC.[Cl-] [QAS, octadecyl dimethyl (3-trimethoxysilyl propyl) ammonium chloride]",Behavior after dissolution,"[1]; surfactant HD, solvent Ethanol",No problem
same,Solubility to tap water,"[1]; surfactant HD, solvent Ethanol",No problem
same,Behavior after dissolution,[1]; [3],No problem
same,Solubility to tap water,[1]; [3],No problem
same,Behavior after dissolution,[1]; [4],No problem
same,Solubility to tap water,[1]; [4],No problem
same,Behavior after dissolution,[1]; [5],No problem
same,Solubility to tap water,[1]; [5],No problem
same,Solubility to tap water,[2]; solvent addition Acetone,Gel→Consolidate
same,Solubility to tap water,[2]; solvent addition: nothing,Gel→Consolidate

# — patent US20100190683A1, “SOLIDIFIED DETERGENT COMPOSITIONS AND METHOD FOR PRODUCING THE SAME” (priority 2007, published 2010)
